Data taken from ChEMBL document CHEMBL1125373, “Systemic analgesic activity and delta-opioid selectivity in [2,6-dimethyl-Tyr1,D-Pen2,D-Pen5]enkephalin” (J Med Chem, 1992).

Tests used:
Assay type in all cases: functional
Mus musculus [1] = species on record: Mus musculus; assay: In Vitro evaluation for the potency for inhibiting the contraction of the electrically stimulated isolated mouse vas deferens
Mus musculus [2] = assay: In vivo antinociceptive activity in mice by using PBQ writing test after subcutaneous administration; settings: sc
Mus musculus [3] = assay: In vivo antinociceptive activity in mice by using hot plate test after intracerebroventricular administration
Mus musculus [4] = assay: In vivo antinociceptive activity in mice by using hot plate test after subcutaneous administration; settings: sc

Row | SMILES | EC50 (Mus musculus [1]) | ED50 (Mus musculus [2]) | ED50 (Mus musculus [3]) | ED50 (Mus musculus [4])
1 | Cc1cc(O)cc(C)c1C[C@H](N)C(=O)N[C@H]1C(=O)NCC(=O)N[C@@H](Cc2ccccc2)C(=O)N[C@@H](C(=O)O)C(C)(C)SSC1(C)C [listing 1 of 2 here] | 0.15 nM |  |  | 
2 | Cc1cc(O)cc(C)c1C[C@H](N)C(=O)N[C@H]1C(=O)NCC(=O)N[C@@H](Cc2ccccc2)C(=O)N[C@@H](C(=O)O)C(C)(C)SSC1(C)C [listing 2 of 2 here] |  | 2.6 mg/kg | 0.2 µg | 33 mg/kg
3 | CC1(C)SSC(C)(C)[C@@H](NC(=O)[C@@H](N)Cc2ccc(O)cc2)C(=O)NCC(=O)N[C@@H](Cc2ccccc2)C(=O)N[C@H]1C(=O)O | 12.9 nM |  | 1.4 µg | 
4 | CN1CC[C@]23c4c5ccc(O)c4O[C@H]2[C@@H](O)C=C[C@H]3[C@H]1C5 [MORPHINE] |  | 0.2 mg/kg | 0.6 µg | 3.2 mg/kg
